Here are results for 1 compound from article PMC12030062, “From In Vitro Cytotoxicity to In Vivo Zebrafish Assays: A Study on 3,3-Dichloro β-, γ- and δ-Lactams and Their Biological Activity Profiles” (Pharmaceuticals, 2025).

Converted amounts (≈) assume the structure as drawn.

Data set [1] deals with murine Swiss albino fibroblast (3T3) cell line. The data set can be described thus: Cell viability, MTT assay, 3T3. Type of data set: cell-based. The conditions noted are these: 24 h incubation, MTT endpoint. As to the method:
Two different endpoints, 3-(4,5-dimethyl-2-thiazolyl)-2,5-diphenyltetrazolium bromide (MTT) and neutral red uptake (NRU), were used to assess differences in cell-induced cytotoxicity. […] In addition, NRU evaluates the interaction of these drugs with the plasmatic membrane. Cell responses were determined from the MTT [16] and NRU [17] assays, using the two proposed cell lines. Cytotoxicity assays were performed at concentrations equal to 80 and 250 µg/mL. The IC50 value, referring to the half-maximal inhibitory concentration, was determined as a key parameter in cytotoxicity studies (Table 1). It plays a crucial role in evaluating cell viability and assessing cellular responses to various drugs or toxins. For cases where IC50 values were below 80 µg/mL, additional studies at lower concentrations were conducted to accurately determine these values. […] The selectivity index (SI), used as a measurement of action against the tumor cell line in comparison with a normal cell line, was also included.
• In Vitro Assay Using Human Erythrocytes • - Acquisition and Extraction of the Erythrocytes Human blood samples were obtained from the Banc de Sang i Teixits de Barcelona (Spain) from the Catalan Department of Health. Blood was deposited in tubes with the anticoagulant EDTA-K3. Blood samples were centrifuged at 3000 rpm and 4 °C for 10 min (Megafuge 2.0 R. Heraeus Instruments, Hanau, Germany) to induce sedimentation. Plasma was extracted with a Pasteur pipette. Next, the residual pellet was washed with PBS at pH 7.4. This procedure was repeated three times to remove residual leukocytes and platelets and to concentrate the erythrocytes. Following the last wash, the erythrocyte suspension was diluted (1:1) in PBS at pH 7.4 to obtain a suitable erythrocyte suspension (cell density of 8 × 10^9 cell/mL). • - Hemolysis Assay The hemolysis assay determined the capability of different compounds to induce the hemolysis of the erythrocyte membrane. Stock solutions of each compound at 1 mg/mL in PBS at pH 7.4 were prepared. Different volumes (10–80 μL) were placed in polystyrene tubes, and an aliquot of 25 µL of the erythrocyte suspensions was added to each tube. The final volume was 1 mL. The tubes were incubated at room temperature under rotatory conditions. Then, the tubes were centrifuged at 10,000 rpm for 5 min. The supernatants’ absorbance at 540 nm (Shimadzu UV-160A, Shimadzu, Duisburg, Germany) was compared with that of the positive (erythrocytes hemolyzed with distilled water) and negative (erythrocyte suspension in PBS at pH 7.4) controls. The degree of hemolysis was determined using the following equation: Hemolysis (%) = 100 × (Abs − Abs0)/(Abs100 − Abs0) where Abs, Abs0, and Abs100 are the absorbance of the test samples, of the suspension treated with isotonic phosphate–buffered saline (PBS), and of the suspension of complete hemolysis treated with distilled water, respectively. • In Vitro Essay Using Cell Cultures The murine Swiss albino fibroblasts (3T3) and the squamous cell carcinoma (A431) cell lines were obtained from Celltec UB. Cells were grown in DMEM medium (4.5 g/L glucose) supplemented with 10% (v/v) FBS, 2 mM L-glutamine, 100 U/mL penicillin, and 100 µg/mL streptomycin at 37 °C with 5% CO2. Cells were routinely cultured in 75 cm^2 culture flasks and were trypsinized using trypsin–EDTA when the cells reached approximately 80% confluence. The trypan blue assay, which allows for the direct identification and enumeration of the live (unstained) and dead (blue) cells in the cell population, was used to evaluate the viability of the cells in the cell suspension obtained. • - Cell Viability Assays Cell lines of 3T3 (1 × 10^5 cells/mL) and A431 (5 × 10^4 cells/mL) were grown at defined densities in the 60 central wells of a 96-well plate. The cells were incubated for 24 h in 5% CO2 at 37 °C. […]

In the next data set the test system is Zebrafish embryos. The class given is in vivo. The conditions noted are these: 74 hpf after 2-h washout; all tested concentrations up to 3.4 µg/mL. As to the method: Additionally, at 74 hpf, following a 2-h washout period, the response to a tactile stimulus or touch-evoked response, also known as a TER, was evaluated in embryos. This assay requires the embryos to have proper neuromuscular function. […] Further studies might be needed to elucidate the specific mechanisms by which the compound affects neurodevelopment or motor function and to determine whether these effects translate to other organisms. These findings are consistent with the broader body of research on anticancer agents, highlighting the importance of neurotoxicity evaluation in drug development and reinforcing the need for ongoing research to address these concerns. The videos and figures related to this part of the work are available in the Supplementary Materials.
• Zebrafish egg production and exposure The study was conducted in accordance with the local legislation and institutional requirements, according to the Generalitat de Catalunya Decree 53/2013, which regulates the use of animals for experimental and other scientific purposes. […] At the end of the test, dysmorphogenesis was evaluated in the live embryos only. The average lethality and dysmorphogenesis were calculated for 10 embryos per concentration, followed by averaging the results of at least three independent experiments. […]

For orientation: IC50 means the midpoint of a concentration-inhibition curve. `CC(C)(C)N1C(=O)C(Cl)(Cl)C1c1ccccc1` (stereo not drawn) [Compound 1]: in data set [1], the “IC50 (MTT) 3T3” value was found to be 210.42 ± 2.40 µg/mL (≈ 773 µM). The IC50 in data set [1] (Mus musculus, 24 h) turned out to be 210 µg/mL (≈ 772 µM). Also, in the data set on Zebrafish embryos, the “touch-evoked response (TER), swimming distance” value is reported as “significant neurodevelopmental adverse effect”.
